One assay deals with OVA-specific IgG2c. The assay can be described thus: Test 3: OVA-specific IgG2c in serum of immunized mice by ELISA. The class given is in vivo, C57BL/6 male mouse. To be noted: mouse, intramuscular with OVA, liposome formulation, 10 or 100 μg/mouse, two immunizations, serum one week after the additional immunization; compared with the negative control group. On the procedure: FIG. 1 is a graph showing the results of measuring OVA-specific IgG2c in immunized mouse serum in mice to which the formulation prepared in Example 6 or 7 was intramuscularly administered, by ELISA in Test 3. The vertical axis indicates the antibody titer of OVA-specific IgG2c in serum. The horizontal axis indicates the administered sample (administered dose in parentheses). 1: negative control group (phosphate buffered saline), 2: Example 6 administration group (the compound of Example 1, 10 μg/mouse), 3: Example 6 administration group (the compound of Example 1, 100 μg/mouse), 4: Example 7 administration group (the compound of Example 2, 10 μg/mouse), 5: Example 7 administration group (the compound of Example 2, 100 μg/mouse).
FIG. 2 is a graph showing the results of measuring OVA-specific IgG2c in immunized mouse serum in mice to which the formulation prepared in Reference Example 16 or Example 6 was intramuscularly administered, by ELISA in Test 3. The vertical axis indicates the antibody titer of OVA-specific IgG2c in serum. The horizontal axis indicates the administered sample (administered dose in parentheses). […]
An equal mixture of ovalbumin (OVA) (2 mg/mL) as an antigen and the formulation prepared in Example 6, Example 7, or Reference example 16 (containing 0.2 or 2 mg/mL the compound of Example 1, Example 2, or Reference example 9) was intramuscularly administered to the gastrocnemius of a 7-week-old C57BL/6 male mouse (100 μL/mouse), which was defined as the first immunization. […] The OVA-specific IgG2c value in each serum was measured by the following ELISA method. To 96-well plate, OVA solution (SIGMA) was added, 1% Skim Milk (Wako) was added for blocking, the serum sample which was diluted with phosphate buffer solution was added, caprine antimouse IgG2c (Southern Bio) as the secondary antibody was added, SureBlue™ TMB Micrewell Peroxidase Substrate (KPL) was added, and then the product of the enzymatic reaction was quantified with a microplate reader.
(In general: ELISA stands for enzyme-linked immunosorbent assay.)

For a further assay, the target named is T1, human TLR4 (Homo sapiens, UniProt O00206+Q9Y6Y9).
T1 construct: host or cells: HEK-Blue hTLR4 cell line
T1 sequence (O00206 24-839): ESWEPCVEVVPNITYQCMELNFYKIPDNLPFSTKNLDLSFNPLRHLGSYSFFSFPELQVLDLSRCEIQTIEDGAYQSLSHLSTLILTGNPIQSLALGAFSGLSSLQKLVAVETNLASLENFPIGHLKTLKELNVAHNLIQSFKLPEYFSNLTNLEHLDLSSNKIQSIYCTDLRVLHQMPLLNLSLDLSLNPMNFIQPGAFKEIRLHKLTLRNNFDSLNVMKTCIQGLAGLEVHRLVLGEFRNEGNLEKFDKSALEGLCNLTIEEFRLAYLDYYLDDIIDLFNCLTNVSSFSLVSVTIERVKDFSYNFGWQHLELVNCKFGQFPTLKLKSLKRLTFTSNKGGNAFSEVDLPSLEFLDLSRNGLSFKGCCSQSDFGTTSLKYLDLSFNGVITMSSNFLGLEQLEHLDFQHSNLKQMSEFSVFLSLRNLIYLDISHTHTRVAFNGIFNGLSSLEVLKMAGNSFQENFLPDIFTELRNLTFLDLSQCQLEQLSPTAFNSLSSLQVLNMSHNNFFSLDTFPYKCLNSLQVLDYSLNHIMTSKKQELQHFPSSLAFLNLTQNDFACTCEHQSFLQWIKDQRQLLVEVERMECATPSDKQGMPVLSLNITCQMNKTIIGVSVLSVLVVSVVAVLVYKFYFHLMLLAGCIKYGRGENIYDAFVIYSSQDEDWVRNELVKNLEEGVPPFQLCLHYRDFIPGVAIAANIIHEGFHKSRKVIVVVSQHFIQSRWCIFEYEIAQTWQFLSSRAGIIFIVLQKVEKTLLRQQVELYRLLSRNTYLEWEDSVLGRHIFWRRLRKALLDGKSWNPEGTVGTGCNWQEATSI
T1 sequence (Q9Y6Y9 17-160 limits assumed): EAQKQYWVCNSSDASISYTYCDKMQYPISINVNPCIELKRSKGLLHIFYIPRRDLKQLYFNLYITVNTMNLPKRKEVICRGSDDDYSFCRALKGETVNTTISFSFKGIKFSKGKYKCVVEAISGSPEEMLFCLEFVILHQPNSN
The assay can be described thus: Human TLR4 reporter gene assay (Test 1). The assay is classed as cell-based. The settings on record: HEK-Blue hTLR4 cell line, SEAP reporter, 37° C. 16-20 hours, 0.1% DMSO; concentration giving half of maximal SEAP level induced with LPS. From the text: Human TLR4 Reporter Gene Assay
HEK-Blue™ hTLR4 cell line (Invivogen Corporation) is a stably co-transfected cell line which expresses human TLR4, MD2, CD14, and secretory alkaline phosphatase (SEAP) reporter gene under the transcriptional regulation of an NF-κB response element. The TLR4 expression of the cell line has been already tested by RT-PCR, flow cytometry. Transfectants with stable expression were selected using the antibiotic HEK-Blue™ Selection. TLR signaling leads to the translocation of NF-κB and the activation of the promoter results in expression of the SEAP gene. TLR4-specific activation was assessed by determining the level of SEAP produced following incubation of the cells at 37° C. for 16-20 hours with each compound prepared in Examples and Reference examples in the presence of 0.1% (v/v) DMSO. The human TLR4 activity for the present compound was assessed by human TLR4 reporter gene assay, and the concentration of the compound concentration which produced half of the maximal level of SEAP induced with lipopolysaccharide (LPS) was determined as EC50.

SMILES strings stand for the structures.

By EC50 is commonly meant the concentration that produces a half-maximal response. A low value points to an effect from little substance.

Regarding `CCCCCCCCCCC[C@H](CC(=O)NC1C(OC[C@@H](NC(=O)C[C@@H](CCCCCCCCCCC)OC(=O)CCCCCCCCC)C(=O)O)OC(CO)C(O)C1OC(=O)C[C@@H](CCCCCCCCCCC)OC(=O)CCCCCCCCc1ccccc1)OC(=O)CCCCCCCCC` (stereo partly drawn) [Example 1, (2R)-2-{[(3R)-3-(Decanoyloxy)tetradecanoyl]amino}-3-{[3-{[(3R)-3-(decanoyloxy)tetradecanoyl]amino}-5-hydroxy-6-(hydroxymethyl)-4-({(3R)-3-[(9-phenylnonanoyl)oxy]tetradecanoyl}oxy)oxan-2-yl]oxy}propanoic acid], in the assay with OVA-specific IgG2c, the “OVA-specific IgG2c induction” value is “significantly strong”. On human TLR4, a half-maximal response (EC50) required 43.5 nM.
As to `CCCCCCCCCCC[C@H](CC(=O)NC1C(OC[C@@H](NC(=O)C[C@@H](CCCCCCCCCCC)OC(=O)CCCCCCCCC)C(=O)O)OC(CO)C(OP(=O)(O)O)C1OC(=O)C[C@@H](CCCCCCCCCCC)OC(=O)CCCCCCCCc1ccccc1)OC(=O)CCCCCCCCC` (stereo partly drawn) [Reference example 9, (2R)-2-{[(3R)-3-(Decanoyloxy)tetradecanoyl]amino}-3-{[3-{[(3R)-3-(decanoyloxy)tetradecanoyl]amino}-6-(hydroxymethyl)-4-({(3R)-3-[(9-phenylnonanoyl)oxy]tetradecanoyl}oxy)-5-(phosphonooxy)oxan-2-yl]oxy}propanoic acid, reference compound], in the assay on OVA-specific IgG2c, the “OVA-specific IgG2c induction” value is given as “significantly strong”. Moreover, at human TLR4, the half-maximal effective concentration (EC50) was 43.9 nM.
`CCCCCCCCCCC[C@H](CC(=O)NC1C(OC[C@H](NC(=O)C[C@@H](CCCCCCCCCCC)OC(=O)CCCCCCCCC)C(=O)O)OC(CO)C(O)C1OC(=O)C[C@@H](CCCCCCCCCCC)OC(=O)CCCCCCCCc1ccccc1)OC(=O)CCCCCCCCC` (stereo partly drawn) [Example 2, (2S)-2-{[(3R)-3-(decanoyloxy)tetradecanoyl]amino}-3-{[3-{[(3R)-3-(decanoyloxy)tetradecanoyl]amino}-5-hydroxy-6-(hydroxymethyl)-4-({(3R)-3-[(9-phenylnonanoyl)oxy]tetradecanoyl}oxy)oxan-2-yl]oxy}propanoic acid]: the “OVA-specific IgG2c induction” value with OVA-specific IgG2c was “significantly strong”. The same compound had an EC50 at human TLR4 of 15 nM.
